Data published in patent publication US20230406885A1, “CYCLIC PEPTIDES FOR TRAPPING INTERLEUKIN-1 BETA” (MERCK SHARP & DOHME LLC, priority 2022, published 2023).
Like-named read-outs stand apart in the source and are kept apart here. Where a SMILES comes first, the peptide text is derived from it. [ ]: non-standard residue; d: D form. Phe(4-(4-Ac-piperazinyl)) = CC(=O)N1CCN(c2ccc(C[C@H](N)C(=O)O)cc2)CC1; Trp(4-Cl)(βS-Me) = C[C@@H](c1c[nH]c2cccc(Cl)c12)[C@H](N)C(=O)O; Bip(4'-COOH) = N[C@@H](Cc1ccc(-c2ccc(C(=O)O)cc2)cc1)C(=O)O; 1Nal(3S-Me) = C[C@@H](c1cccc2ccccc12)[C@H](N)C(=O)O; Ala(pyrimidin-5-yl) = N[C@@H](Cc1cncnc1)C(=O)O; Phe(4-COOH) = N[C@@H](Cc1ccc(C(=O)O)cc1)C(=O)O; h3Pal(5-CN) = N#Cc1cncc(CC[C@H](N)C(=O)O)c1; Phe(4-NH2) = Nc1ccc(C[C@H](N)C(=O)O)cc1; Pro(4R-NH2) = N[C@H]1CN[C@H](C(=O)O)C1; 1Nal = N[C@@H](Cc1cccc2ccccc12)C(=O)O; AEF = NCCOc1ccc(C[C@H](N)C(=O)O)cc1; hTyr = N[C@@H](CCc1ccc(O)cc1)C(=O)O; hCha = N[C@@H](CCC1CCCCC1)C(=O)O; 4Pal = N[C@@H](Cc1ccncc1)C(=O)O; dDab = NCC[C@@H](N)C(=O)O; dNMeA = CN[C@H](C)C(=O)O; Dap = NC[C@H](N)C(=O)O; Aib = CC(C)(N)C(=O)O

Target: T1, Recombinant human IL-1β (Homo sapiens, UniProt P01584)
T1 construct: purchased BioLegend 579404
Assay: IL-6 assay in MRC5 cells: inhibition of IL-1β induced IL-6 secretion (AlphaLISA)
Type: cell-based
Settings: inhibition of IL-1β induced IL-6 secretion in MRC5 cells, read-out: MRC5 IC50
Method in brief: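 IL-1β at 2×EC80 in seeding medium (EMEM, 0.025% BSA) preincubated 1 h at ambient temperature with compound, then 3000 MRC5 cells/well added and incubated overnight at 37 °C, 5% CO2. IL-6 in conditioned medium quantified by AlphaLISA; IC50 from 4-parameter logistic fit.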

[1] = IL-1β pre-incubated 1 hour with compound

T1 sequence (P01584 117-269): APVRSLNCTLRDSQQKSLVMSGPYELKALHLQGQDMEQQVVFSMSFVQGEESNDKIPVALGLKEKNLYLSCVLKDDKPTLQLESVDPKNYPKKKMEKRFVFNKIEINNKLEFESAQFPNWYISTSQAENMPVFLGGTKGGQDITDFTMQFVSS

Row | IC50 [nM] | IC50 [1] [nM] | Structure (SMILES)
1 | 0.766 | – | CC(=O)NCCOc1ccc(C[C@@H]2NC(=O)[C@H](Cc3ccc(N)cc3)NC(=O)[C@@H](C)NC(=O)[C@H](CO)NC(=O)[C@H](Cc3cccc4ccccc34)NC(=O)[C@H](Cc3ccc(-c4ccc(C(=O)O)cc4)cc3)NC(=O)CNC(=O)[C@@H](C)N(C)C(=O)[C@H](CC(=O)O)NC(=O)[C@H]([C@@H](C)c3c[nH]c4cccc(Cl)c34)NC(=O)[C@@H]3C[C@@H](N)CN3C(=O)CNC(=O)[C@H](Cc3ccc(C(=O)O)cc3)NC(=O)[C@H](Cc3c[nH]c4ccccc34)NC2=O)cc1 [Example 133] (cyclo([AEF](Ac)W[Phe(4-COOH)]G[Pro(4R-NH2)][Trp(4-Cl)(βS-Me)]D[dNMeA]G[Bip(4'-COOH)][1Nal]S[dA][Phe(4-NH2)]))
2 | – | 0.0393 | C[C@@H]1C(=O)NCC(=O)N[C@@H](Cc2ccc(-c3ccc(C(=O)O)cc3)cc2)C(=O)N[C@@H](Cc2cncnc2)C(=O)N[C@@H](CN)C(=O)N[C@H](C)C(=O)N[C@@H](CCc2ccc(O)cc2)C(=O)N[C@@H](Cc2ccc(-c3ccc(C(=O)O)cc3)cc2)C(=O)N[C@@H](Cc2c[nH]c3ccccc23)C(=O)N[C@@H](Cc2ccc(C(=O)O)cc2)C(=O)NCC(=O)N2C[C@H](N)C[C@H]2C(=O)N[C@@H]([C@@H](C)c2cccc3ccccc23)C(=O)N[C@@H](CC(=O)O)C(=O)N1C [Example 28] (cyclo([Bip(4'-COOH)]W[Phe(4-COOH)]G[Pro(4R-NH2)][1Nal(3S-Me)]D[dNMeA]G[Bip(4'-COOH)][Ala(pyrimidin-5-yl)][Dap][dA][hTyr]))
3 | 0.03 | – | CC(=O)N1CCN(c2ccc(C[C@@H]3NC(=O)[C@H](CCC4CCCCC4)NC(=O)[C@@H](CCN)NC(=O)CNC(=O)[C@H](Cc4ccncc4)NC(=O)[C@H](Cc4ccc(-c5ccc(C(=O)O)cc5)cc4)NC(=O)CNC(=O)[C@@H](C)N(C)C(=O)[C@H](CC(=O)O)NC(=O)[C@H]([C@@H](C)c4cccc5ccccc45)NC(=O)[C@@H]4C[C@@H](N)CN4C(=O)CNC(=O)[C@H](Cc4ccc(C(=O)O)cc4)NC(=O)[C@H](Cc4c[nH]c5ccccc45)NC3=O)cc2)CC1 [Example 201] (cyclo([Phe(4-(4-Ac-piperazinyl))]W[Phe(4-COOH)]G[Pro(4R-NH2)][1Nal(3S-Me)]D[dNMeA]G[Bip(4'-COOH)][4Pal]G[dDab][hCha]))
4 | 0.018 | – | CC(=O)NCCCC[C@@H]1NC(=O)[C@H](Cc2ccc(-c3ccc(C(=O)O)cc3)cc2)NC(=O)CNC(=O)[C@@H](C)N(C)C(=O)[C@H](CC(=O)O)NC(=O)[C@H]([C@@H](C)c2cccc3ccccc23)NC(=O)[C@@H]2C[C@@H](N)CN2C(=O)CNC(=O)[C@H](Cc2ccc(C(=O)O)cc2)NC(=O)[C@H](Cc2c[nH]c3ccccc23)NC(=O)[C@H](Cc2ccc(N3CCN(C(C)=O)CC3)cc2)NC(=O)[C@H](CCc2cncc(C#N)c2)NC(=O)[C@@H](C)NC(=O)[C@H](CC(C)C)NC1=O [Example 208] (cyclo([Phe(4-(4-Ac-piperazinyl))]W[Phe(4-COOH)]G[Pro(4R-NH2)][1Nal(3S-Me)]D[dNMeA]G[Bip(4'-COOH)]K(Ac)L[dA][h3Pal(5-CN)]))
5 | – | 0.222 | C[C@@H]1C(=O)NCC(=O)N[C@@H](Cc2ccc(-c3ccc(C(=O)O)cc3)cc2)C(=O)N[C@@H](Cc2cccc3ccccc23)C(=O)N[C@@H](CN)C(=O)NC(C)(C)C(=O)NCC(=O)N[C@@H](Cc2ccc(-c3ccc(C(=O)O)cc3)cc2)C(=O)N[C@@H](Cc2c[nH]c3ccccc23)C(=O)N[C@@H](Cc2ccc(C(=O)O)cc2)C(=O)NCC(=O)N2C[C@H](N)C[C@H]2C(=O)N[C@@H]([C@@H](C)c2cccc3ccccc23)C(=O)N[C@@H](CC(=O)O)C(=O)N1C [Example 17] (cyclo([Bip(4'-COOH)]W[Phe(4-COOH)]G[Pro(4R-NH2)][1Nal(3S-Me)]D[dNMeA]G[Bip(4'-COOH)][1Nal][Dap][Aib]G))
